According to ChEMBL document CHEMBL4417631, “Oral peptide inhibitors of interleukin-23 receptor and their use to treat inflammatory bowel diseases” (2017):
Calls of active or inactive are those of the source. The calls are words filed in the database; no cut-off is given here.

Key:
[1] = system: Rattus norvegicus; assay: Anti-colitis activity in Sprague-Dawley rat model of TNBS-induced colitis assessed as improvement in gross pathology scores at 20 mg/kg, po dosed 3 times per day for 8 days starting 24 hrs before TNBS injection; format: functional, organism-based
[2] = AUC in rat small intestinal mucosa at 20 mg/kg, po; format: ADME, organism-based, Mucosa of small intestine; settings: in vivo
[3] = Half life in human intestinal fluid at 20 uM by LC-MS/MS analysis; format: ADME
[4] = AUC in rat colon mucosa at 20 mg/kg, po; format: ADME, organism-based, Colonic mucosa; settings: in vivo
[5] = system: Rattus norvegicus; assay: Anti-colitis activity in Sprague-Dawley rat model of TNBS-induced colitis assessed as reduction in colon weight/colon length ratio at 20 mg/kg, po dosed 3 times per day for 8 days starting 24 hrs before TNBS injection; format: functional, organism-based
[6] = system: Rattus norvegicus; assay: Anti-colitis activity in Sprague-Dawley rat model of TNBS-induced colitis assessed as reduction in localized lesions in mucosa and sub-mucosal regions at 20 mg/kg, po dosed 3 times per day for 8 days starting 24 hrs before TNBS injection by H and E staining based histological assay; format: functional, organism-based
[7] = target: T1, Interleukin-23 receptor (Homo sapiens, UniProt Q5VWK5); assay: Inhibition of interleukin-23 receptor in human DB cells assessed as reduction in IL-23-stimulated STAT3 phosphorylation incubated for 30 mins by HTRF assay; format: cell-based
T1 sequence (Q5VWK5 whole entry): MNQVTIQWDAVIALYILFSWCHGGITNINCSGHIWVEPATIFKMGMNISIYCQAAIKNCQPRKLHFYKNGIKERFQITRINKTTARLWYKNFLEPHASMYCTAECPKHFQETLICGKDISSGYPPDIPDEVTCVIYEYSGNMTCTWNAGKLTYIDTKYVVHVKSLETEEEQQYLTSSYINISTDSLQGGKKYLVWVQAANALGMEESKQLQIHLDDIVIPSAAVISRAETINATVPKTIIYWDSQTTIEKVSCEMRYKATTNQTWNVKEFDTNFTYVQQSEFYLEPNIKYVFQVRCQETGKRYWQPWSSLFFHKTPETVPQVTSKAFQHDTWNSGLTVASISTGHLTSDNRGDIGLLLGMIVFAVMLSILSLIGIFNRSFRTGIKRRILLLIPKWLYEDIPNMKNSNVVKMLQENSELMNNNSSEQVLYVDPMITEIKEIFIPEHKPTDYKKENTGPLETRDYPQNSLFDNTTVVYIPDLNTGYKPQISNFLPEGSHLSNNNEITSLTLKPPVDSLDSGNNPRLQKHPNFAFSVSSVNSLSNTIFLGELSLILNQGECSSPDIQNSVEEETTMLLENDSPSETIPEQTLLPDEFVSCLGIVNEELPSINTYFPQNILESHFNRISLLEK

[8] = target: T2, Interleukin-23 receptor (Homo sapiens) (UniProt Q5VWK5); assay: Binding affinity to human FC-tagged human interleukin-23 receptor assessed as association constant by SPR assay
T2 sequence (whole entry): T1 sequence (Q5VWK5 whole entry)

[9] = target: T1, Interleukin-23 receptor; assay: Inhibition of interleukin-23 receptor in human natural killer cells assessed as reduction in IL23/IL18-induced IFNgamma production incubated for 20 to 24 hrs by ELISA; format: cell-based
[10] = Binding affinity to human FC-tagged human recombinant interleukin-12 receptor beta1/human FC-tagged human interleukin-23 receptor by SPR assay
[11] = Half life in simulated intestinal fluid at 20 uM by LC-MS/MS analysis; format: ADME
[12] = Inhibition of interleukin-23 receptor in rat splenocytes assessed as reduction in IL23-stimulated IL-17A production incubated for 3 hrs by ELISA; format: cell-based
[13] = system: PBMC; assay: Inhibition of IL12-stimulated IFNgamma production in PHA-activated human PBMC by ELISA; format: functional, cell-based
[14] = Half life in DTT at 50 uM up up to 120 mins by reverse phase HPLC and UV detection based assay; format: physicochemical
[15] = species: Homo sapiens; assay: Binding affinity to human FC-tagged human recombinant interleukin-12 receptor beta1/human FC-tagged human interleukin-23 receptor assessed as association constant by SPR assay
[16] = Inhibition of interleukin-23 binding to cynomolgus monkey interleukin-23 receptor incubated for 2 hrs by competitive binding ELISA; set-up: species or system Macaca fascicularis
[17] = Half life in simulated gastric fluid at 20 uM by LC-MS/MS analysis; format: ADME
[18] = system: Rattus norvegicus; assay: Anti-colitis activity in Sprague-Dawley rat model of TNBS-induced colitis assessed as induction of healing at necrosis sites in colon at 20 mg/kg, po dosed 3 times per day for 8 days starting 24 hrs before TNBS injection by H and E staining based histological assay; format: functional, organism-based
[19] = target: T1, Interleukin-23 receptor; assay: Binding affinity to human recombinant interleukin-23 receptor by SPR assay
[20] = Ratio of IC50 for inhibition of interleukin-23 binding to rat interleukin-23 receptor incubated for 2 hrs by competitive binding ELISA to plasma concentration in Sprague-Dawley rat model of TNBS-induced colitis
[21] = system: Rattus norvegicus; assay: Anti-colitis activity in Sprague-Dawley rat model of TNBS-induced colitis assessed as improvement in histological scores at 160 mg/kg/day, po starting 24 hrs before TNBS injection by H and E staining based histological assay; format: functional, organism-based
[22] = target: T3, Interleukin-12 receptor subunit beta-1 (Homo sapiens, UniProt P42701); assay: Binding affinity to human recombinant interleukin-12 receptor beta1 by SPR assay
[23] = Inhibition of interleukin-6 binding to human interleukin-6 receptor incubated for 2 hrs by competitive binding ELISA
[24] = target: T1, Interleukin-23 receptor; assay: Binding affinity to human FC-tagged human interleukin-23 receptor assessed as dissociation rate constant by SPR assay
[25] = system: Rattus norvegicus; assay: Anti-colitis activity in Sprague-Dawley rat model of TNBS-induced colitis assessed as reduction in mucosal necrosis at 160 mg/kg/day, po starting 24 hrs before TNBS injection; format: functional, organism-based
[26] = target: T3, Interleukin-12 receptor subunit beta-1; assay: Binding affinity to human FC-tagged human recombinant interleukin-12 receptor beta1 up to […] by SPR assay
[27] = target: T1, Interleukin-23 receptor; assay: Binding affinity to human FC-tagged human interleukin-23 receptor by SPR assay
[28] = Ratio of IC50 for inhibition of interleukin-23 receptor in rat splenocytes assessed as reduction in IL23-stimulated IL-17A production incubated for 3 hrs by ELISA to plasma concentration in Sprague-Dawley rat model of TNBS-induced colitis
[29] = AUC in rat plasma at 20 mg/kg, po; format: ADME, organism-based
[30] = Inhibition of interleukin-23 binding to rat interleukin-23 receptor incubated for 2 hrs by competitive binding ELISA
[31] = system: Rattus norvegicus; assay: Anti-colitis activity in Sprague-Dawley rat model of TNBS-induced colitis assessed as reduction in inflammation at 20 mg/kg, po dosed 3 times per day for 8 days starting 24 hrs before TNBS injection; format: functional, organism-based
[32] = Drug recovery in rat feces at 20 mg/kg, po; format: ADME, organism-based; settings: read-out: Drug recovery
[33] = system: Rattus norvegicus; assay: Anti-colitis activity in Sprague-Dawley rat model of TNBS-induced colitis assessed as reduction in colon wall thickness at 160 mg/kg/day, po starting 24 hrs before TNBS injection; format: functional, organism-based
[34] = target: T1, Interleukin-23 receptor; assay: Inhibition of interleukin-23 binding to human interleukin-23 receptor incubated for 2 hrs by competitive binding ELISA
[35] = Binding affinity to human FC-tagged human recombinant interleukin-12 receptor beta1/human FC-tagged human interleukin-23 receptor assessed as dissociation rate constant by SPR assay
[36] = system: Rattus norvegicus; assay: Anti-colitis activity in Sprague-Dawley rat model of TNBS-induced colitis assessed as reduction in inflammation at 160 mg/kg/day, po starting 24 hrs before TNBS injection; format: functional, organism-based

For `CC(=O)N[C@H]1CCSC[C@@H](C(=O)N[C@@H](Cc2ccc(OCCN)cc2)C(=O)N[C@@H](Cc2c[nH]c3ccccc23)C(=O)N[C@@](C)(CCCCN)C(=O)N[C@@H](CCC(=O)O)C(=O)N[C@@H](CC(N)=O)C(=O)NCC(N)=O)NC(=O)[C@H](CCC(N)=O)NC(=O)[C@H](Cc2c[nH]c3ccccc23)NC(=O)[C@H]([C@@H](C)O)NC(=O)[C@H](CCC(N)=O)NC1=O`, the Activity [1] was “Active”, the AUC [2] was 355 µg·h/g and the half-life at 20 µM [3] was over 24 h. For the same molecule, the AUC [4] was 77 µg·h/g, the Activity [5] was “Active” and the Activity [6] was “Active”. For the same molecule, the IC50 [7] was under 10 nM, the Ka [8] was 1.37 ×10⁷ /M/s and the IC50 [9] was 25 to 27 nM. The Kd [10] was 2.56 nM, the half-life at 20 µM [11] was 6 to 24 h and the IC50 [12] was 130 nM. The IC50 [13] was over 100000 nM, the half-life at 50 µM [14] was over 2 h and the Ka [15] was 1.59 ×10⁷ /M/s. For the same molecule, the IC50 [16] was 7 nM, the half-life at 20 µM [17] was 2 to 24 h and the Activity [18] was “Active”. For the same molecule, the Kd [19] was 2.4 nM, the Ratio [20] was under 2 and the Activity [21] was “Active”. The Kd [22] was “Not Active”, the IC50 [23] was over 100000 nM and the Kd [24] was 0.033 s⁻¹. The Activity [25] was “Active”, the Activity [26] was “inactive” and the Kd [27] was 2.42 nM. The Ratio [28] was under 2, the AUC [29] was 300 ng·h/mL and the IC50 [30] was 10 to 25 nM. For the same molecule, the Activity [31] was “Active”, the dose excreted [32] was 40% and the Activity [33] was “Active”. For the same molecule, the IC50 [34] was 10 to 25 nM, the Kd [35] was 0.041 s⁻¹ and the Activity [36] was “Active”.
